In publication PMC9645410 (Chemical Science, 2022):

What follows are compounds tested against GFPxm163 (Aequorea macrodactyla, UniProt Q8WTC8) (assay: fluorescence quenching titration).
Type: binding

Sequence of GFPxm163 (Q8WTC8 1-238): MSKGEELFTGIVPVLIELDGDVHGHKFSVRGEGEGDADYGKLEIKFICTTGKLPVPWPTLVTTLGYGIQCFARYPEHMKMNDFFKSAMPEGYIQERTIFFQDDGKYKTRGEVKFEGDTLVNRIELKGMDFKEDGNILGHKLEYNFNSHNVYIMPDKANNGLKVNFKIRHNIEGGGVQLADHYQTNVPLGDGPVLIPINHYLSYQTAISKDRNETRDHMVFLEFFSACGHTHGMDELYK

Row | Kd [mM] | Structure (SMILES)
1 | 46.2 ± 5.3 | Br [bromide]
2 | 6.4 ± 0.1 | I [iodide]

Row | Structure (SMILES) | Kd [mM]
3 | O=[N+]([O-])O [nitrate] | 24.1 ± 0.8
